Type in all cases: cell-based
Assay [1] concerns A-549 (monolayer culture of a human lung carcinoma). In words: Antitumor screening, growth inhibition of A-549 cells (Crystal Violet staining). Particulars: A549, 72 h, three days of incubation at 37°C, approximate IC₅₀ vs control wells, duplicate. As for the experimental part: (§1) Cells were maintained in logarithmic phase of growth in Eagle's Minimum Essential Medium, with Earle's Balanced Salts, with 2.0 mM L-Glutamine, with non-essential Amino Acids, without Sodium Bicarbonate (EMEM/NEAA); supplemented with 10% Fetal Calf Serum (FCS), 10⁻² M Sodium Bicarbonate and 0,1 g/1 Penicillin-G + Streptomycin Sulfate.
(§2) A simple screening procedure was carried out to determine and compare the antitumor activity of these compounds, using an adapted form of the method described by Bergeron et al., Biochem. Biophys. Res. Comm. (1984) 121 848 [Reference 6]. The antitumor cell employed was P-388 (suspension culture of a lymphoid neoplasm from DBA/2 mouse), A-549 (monolayer culture of a human lung carcinoma), HT-29 (monolayer culture of a human colon carcinoma) and MEL-28 (monolayer culture of a human melanoma).
(§3) A-549, HT-29 and MEL-28 were seeded into 16 mm wells at 2 x 10⁴ cells per well in […] of MEM 10FCS containing the indicated concentration of drug. A separate set of cultures without drug was seeded as control growth to ensure that cells remained in exponential phase of growth. All determinations were carried out in duplicate. After three days of incubation at 37°C, 10% CO₂ in a 98% humid atmosphere, the wells were stained with 0.1% Crystal Violet. An approximate IC₅₀ was determined by comparing the growth in wells with drug to the growth in control wells.

The subject of assay [2] is HT-29 (monolayer culture of a human colon carcinoma). Kind of assay: Antitumor screening, growth inhibition of HT-29 cells (Crystal Violet staining). Particulars: 72 h, three days of incubation at 37°C, approximate IC₅₀ vs control wells, duplicate. As for the experimental part:
as §1, §2, §3

Assay [3] has as its system P-388 (suspension culture of a lymphoid neoplasm from DBA/2 mouse). In words: Antitumor screening, growth inhibition of P-388 cells. Particulars: P388, 72 h, three days of incubation at 37°C, approximate IC₅₀ vs control wells, duplicate. How it is done: as §1, §2
P-388 cell were seeded into 16 mm wells at 1 x 10⁴ cells per well in 1 ml aliquots of MEM 5FCS containing the indicated concentration of drug. A separate set of cultures without drug was seeded as control growth to ensure that cells remained in exponential phase of growth. All determinations were carried out in duplicate. After three days of incubation at 37°C, 10% CO₂ in a 98% humid atmosphere, an approximate IC₅₀ was determined by comparing the growth in wells with drug to the growth in control wells.

The subject of assay [4] is MEL-28 (monolayer culture of a human melanoma). Kind of assay: Antitumor screening, growth inhibition of MEL-28 cells (Crystal Violet staining). Particulars: SK-MEL-28, 72 h, three days of incubation at 37°C, approximate IC₅₀ vs control wells, duplicate. How it is done:
as §1, §2, §3

Data on 4 compounds can be found in EP0687673A1, “Oxazole derivatives as antitumoral agents” (PHARMA MAR, S.A., priority 1994, dated 1995).

Values after ≈ are worked out from the molar mass of the structure shown.

The IC50 is the midpoint of a concentration-inhibition curve. In the case of `CCCCCCCCCCCCCCCCCCCCC(=O)OC(CC(OC(C)=O)C(OC(C)=O)C(C)OC(C)=O)c1coc(Cc2cnco2)n1` (stereo not drawn) [Digonazole triacetate (8), Digonazole triacetate], the IC50 in assay [1] is 0.01 µg/mL; in assay [2], 0.02 µg/mL; in assay [3], 0.2 µg/mL; in assay [4], 0.01 µg/mL.
As for `CCCCCCCCCCCCCCCCCCCCC(=O)OC(CC(O)C(O)C(C)O)c1coc(Cc2cnco2)n1` (stereo not drawn) [Digonazole (6), Digonazole], the IC50 in assay [1] was 0.2 µg/mL (≈ 0.33 µM); in assay [2], 0.2 µg/mL (≈ 0.33 µM); in assay [3], 2.5 µg/mL (≈ 4.12 µM).
Regarding `CC(=O)OC(CC(OC(C)=O)C(OC(C)=O)C(C)OC(C)=O)c1coc(Cc2cnco2)n1` (stereo not drawn) [Tetraacetoxyhexyl dioxazole (10), Tetraacetoxyhexyl dioxazole], the IC50 is 1 µg/mL (≈ 2.14 µM) in assay [1], 0.5 µg/mL (≈ 1.07 µM) in assay [2], 10 µg/mL (≈ 21.4 µM) in assay [3] and 10 µg/mL (≈ 21.4 µM) in assay [4].
As to `CC(O)C(O)C(O)CC(O)c1coc(Cc2cnco2)n1` (stereo not drawn), the IC50 in assay [1] was 5 µg/mL (≈ 16.8 µM); in assay [2], 5 µg/mL (≈ 16.8 µM); in assay [3] it was > 20 µg/mL; in assay [4] it was 5 µg/mL (≈ 16.8 µM).
